In US9126060B2, “Cosmetic use of geranylgeranyl-2-propanol” (SEDERMA, priority 2010, dated 2015):

Legend:
[1] = ORAC test (Oxygen-Radical Absorbance Capacity): fluorescein degradation by peroxyl radicals; format: biochemical; conditions: n = 6
Source text: Principle: the ORAC test (“Oxygen-Radical Absorbance Capacity”) measures degradation by the oxidative way of a fluorescent molecule (fluorescein). Degradation of fluorescein by peroxyl radicals generated by AAPH (2,2′-azobis (2-amidinopropane) dichloride) induces a decrease in fluorescence measured by a spectrofluorometer during a degradation kinetic.
An antioxidant protects this fluorescein against this radical degradation. The decrease in fluorescence will be smaller and slower in the presence of the antioxidant than in its absence. The comparison between the parameters of the two kinetics makes it possible to calculate a percentage of protection against free radical degradation.

[2] = system: syndecan 1; assay: Syndecan 1 synthesis in NHK supernatants (ELISA); format: cell-based, human; conditions: for Syndecan 1: 48 h, n = 3
Protocol: Principle: Human keratinocytes (NHK) are cultivated in a growth medium. After 6 days of incubation, the cells are contacted or not with the tested products (GGP and GGA) at 3, 5 or 7 ppm for 48 h. After incubation, the supernatants are taken and the syndecan 1 content is assayed by ELISA in these supernatants. The cell layers are sonicated and the cell number is evaluated by Hoechst method.

[3] = target: T1, tyrosinase (Homo sapiens, UniProt P14679); assay: Residual tyrosinase activity in human melanocytes; format: cell-based; conditions: for tyrosinase activity: 5 days, n = 4
T1 construct: endogenous in cells; host or cells: human melanocytes
T1 sequence (P14679 19-529): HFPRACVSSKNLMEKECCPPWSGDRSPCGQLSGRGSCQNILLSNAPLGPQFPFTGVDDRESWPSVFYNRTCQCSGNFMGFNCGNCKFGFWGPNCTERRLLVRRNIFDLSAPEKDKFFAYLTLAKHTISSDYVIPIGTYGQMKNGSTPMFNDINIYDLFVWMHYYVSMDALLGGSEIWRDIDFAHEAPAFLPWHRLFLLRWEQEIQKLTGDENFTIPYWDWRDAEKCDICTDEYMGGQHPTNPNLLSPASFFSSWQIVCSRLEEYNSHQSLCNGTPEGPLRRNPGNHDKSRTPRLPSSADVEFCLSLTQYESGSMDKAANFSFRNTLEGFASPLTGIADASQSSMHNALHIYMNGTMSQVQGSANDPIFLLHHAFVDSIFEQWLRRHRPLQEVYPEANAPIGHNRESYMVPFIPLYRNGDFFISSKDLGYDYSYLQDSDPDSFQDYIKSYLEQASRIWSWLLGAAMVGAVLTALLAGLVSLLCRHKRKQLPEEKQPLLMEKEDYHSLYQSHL
Protocol: Principle: Human melanocytes are seeded and placed in contact with the GGP for 5 days. After incubation, the residual tyrosinase activity and total melanin content were measured in cell homogenates, and then divided by the number of cells (melanin) or to the protein amount (tyrosinase).

CC(C)=CCC/C(C)=C/CC/C(C)=C/CC/C(C)=C/CCC(C)O (stereo not drawn) [GGP, 6,10,14,18-tetramethylnonadeca-5,9,13,17-tetraen-2-ol]
% of protection ([1]; 10 ppm): 56% | % of protection ([1]; 50 ppm): 68% | % of protection ([1]; 200 ppm): 77% | % of protection ([1]; 400 ppm): 87% | Change (%) of syndecan 1 vs control ([2]; 3 ppm): +96%; p < 0.01 | Syndecan 1 ([2]; 3 ppm): 135.3 +/− 6.3 pg/10^6 cell | Change (%) of syndecan 1 vs control ([2]; 5 ppm): +190%; p < 0.01 | Syndecan 1 ([2]; 5 ppm): 200.6 +/− 15.8 pg/10^6 cell | Syndecan 1 ([2]; 7 ppm): 265.5 +/− 24.3 pg/10^6 cell | Change (%) of tyrosinase activity vs control ([3]; 1 ppm): −11%; p < 0.05 | tyrosinase activity ([3]; 1 ppm): 6.196 +/− 0.318 U/μg prot | Change (%) of tyrosinase activity vs control ([3]; 3 ppm): −29%; p < 0.01 | tyrosinase activity ([3]; 3 ppm): 4.956 +/− 0.129 U/μg prot | Change (%) of tyrosinase activity vs control ([3]; 5 ppm): −49%; p < 0.01 | tyrosinase activity ([3]; 5 ppm): 3.588 +/− 0.248 U/μg prot
